Results reported in PubChem BioAssay AID588657 (The Scripps Research Institute Molecular Screening Center, 2011).
Calls of active or inactive are those of the source.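 How the source made its calls: active means EGR1 protein level shifted at least 30% up or down versus solvent-only cells; inactive means shift under 30% either way.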

Target: Early growth response protein 1 (Homo sapiens) (UniProt P18146)
Assay: altered EGR1 protein amount, HT29 – cell-based, HT29 colorectal carcinoma, chemiluminescent western blot, counter-screen for KLF5 inhibitor project, late-stage follow-up (AID 588657)
Settings: HT29 cells, 24 h, at 10 µM, stronger effect = higher value

Early growth response protein 1 (Homo sapiens), sequence (P18146 whole entry, looked up): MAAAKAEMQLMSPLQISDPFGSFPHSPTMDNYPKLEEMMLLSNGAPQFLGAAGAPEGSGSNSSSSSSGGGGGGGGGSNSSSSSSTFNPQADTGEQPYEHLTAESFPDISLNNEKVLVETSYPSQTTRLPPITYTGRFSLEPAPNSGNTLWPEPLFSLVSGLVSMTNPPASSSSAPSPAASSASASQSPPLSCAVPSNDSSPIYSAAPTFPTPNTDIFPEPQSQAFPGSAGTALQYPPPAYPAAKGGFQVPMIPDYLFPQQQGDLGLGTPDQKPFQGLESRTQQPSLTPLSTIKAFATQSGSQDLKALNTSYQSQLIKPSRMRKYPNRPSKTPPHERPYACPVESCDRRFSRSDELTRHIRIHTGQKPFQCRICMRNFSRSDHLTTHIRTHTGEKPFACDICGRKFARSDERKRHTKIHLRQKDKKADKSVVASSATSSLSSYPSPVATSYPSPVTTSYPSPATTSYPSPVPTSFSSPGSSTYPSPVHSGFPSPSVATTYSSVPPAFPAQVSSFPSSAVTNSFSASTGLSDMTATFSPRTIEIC

`CN(C(=O)COC(=O)/C=C/c1cccc([N+](=O)[O-])c1)C1CCS(=O)(=O)C1` (stereo not drawn) gave an inhibition of 29.7%.

For `CN(C(=O)CNC(=O)/C=C/c1cccc(Cl)c1)C1CCS(=O)(=O)C1` (stereo not drawn), the inhibition was 9.34% (inactive).

`CN(C(=O)CNC(=O)/C=C/c1cccc(Cl)c1)C1CCS(=O)(=O)CC1` gave an inhibition of 64.5%.
